Where two headings read alike, the source gives them in different places.
Key:
[1] = tested on: HCC4017 lung cancer cells; experiment: MTS cell viability, HCC4017; type: cell-based, human; conditions: HCC4017 (lung cancer, matched to HBEC30KT), MTS, 4 days
Method: (§1) All human cancer cell lines were maintained in RPMI media supplemented with 5% (lung and breast cancer cells) or 10% (melanoma cells) fetal bovine serum. […] Human mammary epithelial cells immortalised with telomerase were maintained in complete MEGM media from Cambrex (East Rutherford, NJ, USA).
(§2) Absorbance at 490 and 650 nm (reference wavelength) was measured by a Spectra Max (Molecular Devices, Sunnyvale, CA, USA) or a FlouroStar Omega (BMG Biosciences, Ortenberg, Germany) plate reader. Data were normalised to the untreated controls (100% viability). Each cell line was tested in 1–5 independent assays, each containing 4–8 replicates. IC50 values were calculated using DIVISA, a high-throughput software, developed in-house (manuscript in preparation), for storing and analysing drug sensitivity assays. Dose–response curves were plotted using a non-linear regression model and IC50s were determined from the fitted curves.

H2085 cells = experiment: MTS cell viability, H2085; type: cell-based, human; conditions: H2085 NSCLC, 4 days
Method: as §1, §2

A549 cells = experiment: MTS cell viability, A549; type: cell-based, human; conditions: A549 NSCLC, 4 days
Method: as §1, §2

H292 cells = experiment: MTS cell viability, H292; type: cell-based, human; conditions: H292 NSCLC, 4 days
Method: as §1, §2

[2] = tested on: HBEC16KT human bronchial epithelial cells; experiment: MTS cell viability, HBEC16KT; type: cell-based; conditions: 4 days
Method: as §1, §2

H1437 cells [3] = experiment: MTS cell viability, H1437; type: cell-based, human; conditions: H1437 NSCLC, MTS, 4 days
Method: as §1, §2

HCC1500 cells = experiment: MTS cell viability, HCC1500; type: cell-based, human; conditions: HCC1500 breast cancer line, 4 days
Method: as §1, §2

[4] = tested on: OMM2.3 uveal melanoma cells; experiment: MTS cell viability, OMM2.3; type: cell-based, human; conditions: 4 days
Method: as §1, §2

SKMEL2 melanoma cells = experiment: MTS cell viability, SKMEL2; type: cell-based, human; conditions: SKMEL2 melanoma, MTS, 4 days
Method: as §1, §2

[5] = tested on: HBEC3KT human bronchial epithelial cells; experiment: MTS cell viability, HBEC3KT; type: cell-based; conditions: 4 days
Method: as §1, §2

recombinant murine HDAC2 = target: T1, recombinant murine HDAC2 (Mus musculus, UniProt P70288); experiment: HDAC fluorometric activity assay, purified HDAC2; type: biochemical; conditions: 400 nM
T1 construct: The murine HDAC2 open reading frame was amplified by PCR from the plasmid pME18S-HDAC2; FLAG (DYKDDDDK) (C); made in house; host or cells: Sf9 insect cells (baculovirus)
Description: Cell extracts or purified recombinant HDAC enzymes were used in standard HDAC activity assays using Millipore's HDAC Fluorometric Assay Kit (Millipore, Billerica, MA, USA), according to the manufacturer's protocol. A FluoroStar Omega plate reader (BMG Biosciences) was used for fluorescent detection. […] HDAC2 was purified as described below.

HCC1806 cells = experiment: MTS cell viability, HCC1806; type: cell-based, human; conditions: HCC1806 breast cancer line, 4 days
Method: as §1, §2

[6] = tested on: acetylated tubulin in H358 cells; experiment: Western blot, acetylated tubulin; type: cell-based, human; conditions: 200 nM, 24 h
Method: (§3) Exponentially growing cells were treated with the appropriate compounds and harvested 4 or 24 h later in a standard nuclear lysis buffer and whole cell lysates were quantified. Equal amounts of total protein were loaded onto 4–12% Bis-Tris SDS gels and subjected to electrophoresis. After transferring onto nitrocellulose membranes, blots were probed for acetylated tubulin (Sigma, St Louis, MO, USA; T6793), acetylated histone 3 (Millipore/Upstate #06-599), acetylated histone 4 (Millipore/Upstate #07-329) or trimethylated histone 3 at lysine 9 (Millipore/Upstate #07-523). Actin (Santa Cruz, Santa Cruz, CA, USA; #1616) and HDAC1 (Affinity Bioreagents, Rockford, IL, USA; #PA1-860) were probed as loading controls. Quantification of bands in films was performed using two independent methods, which yielded similar results, Image J (NIH public software) and Quantity one (Bio-Rad, Hercules, CA, USA). The average of the two methods±s.e.m. is shown as specified in figure legends. For the MDR western analysis, a primary antibody against P-glycoprotein from Calbiochem (Darmstadt, Germany) was used according to the manufacturer's recommendations and HSP90 (Santa Cruz) was used as a loading control.

[7] = tested on: histone 3 trimethylated at lysine 9 in H358 cells; experiment: Western blot, histone 3 lysine 9 trimethylation; type: cell-based, human
Method: as §3

HCC366 cells = experiment: MTS cell viability, HCC366; type: cell-based, human; conditions: HCC366 NSCLC, 4 days
Method: as §1, §2

[8] = target: purified recombinant HDAC8 (Homo sapiens, UniProt Q9BY41)
Description: (§4) Cell extracts or purified recombinant HDAC enzymes were used in standard HDAC activity assays using Millipore's HDAC Fluorometric Assay Kit (Millipore, Billerica, MA, USA), according to the manufacturer's protocol. A FluoroStar Omega plate reader (BMG Biosciences) was used for fluorescent detection. Purified recombinant active HDACs 1, 5 and 8 were purchased from Millipore/Upstate.

[9] = target: purified recombinant HDAC1 (Homo sapiens, UniProt Q13547); conditions: 50 nM
Description: as §4

[10] = tested on: total HDAC activity, C127 cells; experiment: Total HDAC activity in lysates from drug-treated cells; type: cell-based; conditions: 25 nM
Description: HDAC2 was purified as described below.

H1437 cells [11] = experiment: ATP-based cell viability, H1437 vs H1299; parameters: species or system human; conditions: cell viability by ATP measurements
Description: Supplementary Material Chang et al
This supplementary material contains:
-Supplementary Figure Legends
-Supplementary Figures 1- 4
Please see separate excel file for Supplementary Table 1.
Supplementary Figure Legends
Supplementary Figure 1: Expanded panel of cell lines showing distinct relative sensitivities to
TSA vs. depsipeptide. Lung cancer cell lines not depicted in the main Figure 1A are shown in A)
and an expanded set of breast cancer cells and HMES and melanomacells and melanocytes in
Supplementary Figure 2: Differential response to HDAC inhibitors is a general phenomenon. A)
H1299 also by ATP measurements.
Supplementary Figure 3: HDAC ex pression levels may contribute to drug sensitivity. A)
B) HDAC 2 levels are similar in the cell line
Supplementary Figure 4: Validation of microarray gene expression differences in the
H1993/H2073 cell line pair confirmed overexpression of glutathione metabolism genes in H2073
(shown in A) and downregulation of chromatin interacting proteins (B).

Chain of purified recombinant HDAC8 (Q9BY41 whole entry, species assumed): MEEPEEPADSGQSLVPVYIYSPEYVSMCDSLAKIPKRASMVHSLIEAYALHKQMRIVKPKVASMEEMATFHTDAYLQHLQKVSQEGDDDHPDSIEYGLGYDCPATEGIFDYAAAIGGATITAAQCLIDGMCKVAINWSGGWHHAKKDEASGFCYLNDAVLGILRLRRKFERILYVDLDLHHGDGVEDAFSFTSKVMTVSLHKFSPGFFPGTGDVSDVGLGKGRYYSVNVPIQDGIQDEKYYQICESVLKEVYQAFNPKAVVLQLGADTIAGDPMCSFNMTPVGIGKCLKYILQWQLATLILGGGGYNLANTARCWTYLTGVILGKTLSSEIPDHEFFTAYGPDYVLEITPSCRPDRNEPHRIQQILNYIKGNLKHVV
T1 sequence (P70288 whole entry): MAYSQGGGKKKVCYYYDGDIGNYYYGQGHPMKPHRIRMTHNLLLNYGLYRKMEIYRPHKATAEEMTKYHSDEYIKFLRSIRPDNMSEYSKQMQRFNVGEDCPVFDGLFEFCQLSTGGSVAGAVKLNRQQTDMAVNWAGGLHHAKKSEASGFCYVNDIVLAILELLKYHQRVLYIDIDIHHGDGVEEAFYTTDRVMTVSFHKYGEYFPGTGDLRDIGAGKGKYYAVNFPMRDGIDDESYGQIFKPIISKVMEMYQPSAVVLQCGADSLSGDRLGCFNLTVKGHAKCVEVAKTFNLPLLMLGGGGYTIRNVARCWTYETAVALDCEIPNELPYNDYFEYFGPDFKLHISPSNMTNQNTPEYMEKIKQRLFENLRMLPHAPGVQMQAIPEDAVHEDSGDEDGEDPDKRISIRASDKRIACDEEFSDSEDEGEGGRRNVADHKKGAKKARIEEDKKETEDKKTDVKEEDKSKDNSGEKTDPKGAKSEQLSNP
Chain of purified recombinant HDAC1 (Q13547 whole entry, species assumed): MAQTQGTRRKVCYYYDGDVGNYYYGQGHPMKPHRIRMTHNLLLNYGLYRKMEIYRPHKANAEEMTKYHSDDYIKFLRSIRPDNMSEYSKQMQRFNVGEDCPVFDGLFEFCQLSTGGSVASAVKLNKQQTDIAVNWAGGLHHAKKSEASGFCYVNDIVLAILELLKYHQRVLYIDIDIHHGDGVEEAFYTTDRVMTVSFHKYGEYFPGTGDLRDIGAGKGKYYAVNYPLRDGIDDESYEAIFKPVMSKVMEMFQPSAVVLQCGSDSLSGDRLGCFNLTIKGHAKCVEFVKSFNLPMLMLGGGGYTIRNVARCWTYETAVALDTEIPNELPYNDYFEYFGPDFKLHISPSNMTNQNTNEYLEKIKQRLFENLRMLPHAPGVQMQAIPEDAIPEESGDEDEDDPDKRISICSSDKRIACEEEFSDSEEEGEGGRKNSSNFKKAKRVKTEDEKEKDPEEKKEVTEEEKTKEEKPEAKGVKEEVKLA

Structure (SMILES)	IC50 [1] [nM]	IC50 (H2085 cells) [nM]	IC50 (A549 cells) [nM]	IC50 (H292 cells) [nM]	IC50 [2] [nM]	IC50 (H1437 cells [3]) [nM]	IC50 (HCC1500 cells) [nM]	IC50 [4] [nM]	IC50 (SKMEL2 melanoma cells) [nM]	IC50 [5] [nM]	IC50 (HCC1806 cells) [nM]	IC50 (HCC366 cells) [nM]	also measured
CC(/C=C/C(=O)NO)=C\[C@@H](C)C(=O)c1ccc(N(C)C)cc1 [TSA, trichostatin A]	73	390	39.7	22.5	260	191	29	81	336	318	41	147	inhibition of HDAC2 activity (recombinant murine HDAC2): fully inhibited; acetylated tubulin levels [6]: increase; global level of histone 3 trimethylated at lysine 9 ([7]; 200 nM): no effect
C/C=C1\NC(=O)[C@H]2CSSCC/C=C/[C@H](CC(=O)N[C@H](C(C)C)C(=O)N2)OC(=O)[C@H](C(C)C)NC1=O [Depsipeptide, depsipeptide]	6.5	6.9	2	0.7	4.9	0.5	1.5	2.7	0.4	1	1.8	3.1	inhibition of HDAC8 activity ([8]; 50 nM): no effect; inhibition of HDAC8 activity ([8]; 0.5 μM): no effect; inhibition of HDAC1 activity [9]: no inhibition; total HDAC activity in lysates made from treated cells vs DMSO-treated cells [10]: strong inhibition; global level of histone 3 trimethylated at lysine 9 ([7]; 25 nM): reproducibly decreased; sensitivity of H1437 compared to H1299 (H1437 cells [11]): greater sensitivity

Reference: publication PMC3251870 (British Journal of Cancer, 2011)
